A word on the melting point: it is the temperature of the solid-liquid transition.

With `C=CC(=O)N1C(=C)C(c2ccccc2F)CC1=O` (stereo not shown) [DHP, 5-methylene-1-(prop-2-enoyl)-4-(2-fluorophenyl)-dihydropyrrol-2-one], the melting point was in the range of 121 to 122 °C.

Source of the values: patent US11098203B2, “Polymer coatings” (COMMONWEALTH SCIENTIFIC AND INDUSTRIAL RESEARCH ORGANISATION, priority 2016, dated 2021).
